Test system: P. acnes
Experiment: Agar dilution method, growth of P. acnes and MIC, combinations with a fatty acid spike
Assay type: cell-based, Propionibacterium acnes
Set-up: key to Growth Index Plate 1 / Growth Index Plate 2 / Growth Index Plate 3 / Growth Index Avg: +++: confluent growth (comparable to control); ++: less confluent growth; +: marked reduction in growth to multiple tiny, single colonies; −: no growth present
[1] = compound at 1 mg/mL + 0.01 mg/mL 15-HETrE
[2] = compound at 1 mg/mL + 0.05 mg/mL 15-HETrE
[3] = compound at 1 mg/mL + 0.05 mg/mL 15-OHEPA
[4] = compound at 1 mg/mL + 0.1 mg/mL 15-OHEPA
[5] = compound at 1 mg/mL + 0.4 mg/mL dGLA
[6] = compound at 1 mg/mL + 1.0 mg/mL dGLA
[7] = compound at 5 mg/mL + 0.01 mg/mL 15-HETrE
[8] = compound at 5 mg/mL + 0.05 mg/mL 15-HETrE
[9] = compound at 5 mg/mL + 0.05 mg/mL 15-OHEPA
[10] = compound at 5 mg/mL + 0.1 mg/mL 15-OHEPA
[11] = compound at 5 mg/mL + 0.4 mg/mL dGLA
[12] = compound at 5 mg/mL + 1.0 mg/mL dGLA
[13] = compound at 10 mg/mL + 0.01 mg/mL 15-HETrE
[14] = compound at 10 mg/mL + 0.05 mg/mL 15-HETrE
[15] = compound at 10 mg/mL + 0.05 mg/mL 15-OHEPA
[16] = compound at 10 mg/mL + 0.1 mg/mL 15-OHEPA
[17] = compound at 10 mg/mL + 0.4 mg/mL dGLA
[18] = compound at 10 mg/mL + 1.0 mg/mL dGLA
[19] = compound at 15 mg/mL + 0.01 mg/mL 15-HETrE
[20] = compound at 15 mg/mL + 0.05 mg/mL 15-HETrE
[21] = compound at 15 mg/mL + 0.05 mg/mL 15-OHEPA
[22] = compound at 15 mg/mL + 0.1 mg/mL 15-OHEPA
[23] = compound at 15 mg/mL + 0.4 mg/mL dGLA
[24] = compound at 15 mg/mL + 1.0 mg/mL dGLA
[25] = compound at 25 mg/mL + 0.01 mg/mL 15-HETrE
[26] = compound at 25 mg/mL + 0.05 mg/mL 15-HETrE
[27] = compound at 25 mg/mL + 0.05 mg/mL 15-OHEPA
[28] = compound at 25 mg/mL + 0.1 mg/mL 15-OHEPA
[29] = compound at 25 mg/mL + 0.4 mg/mL dGLA
[30] = compound at 25 mg/mL + 1.0 mg/mL dGLA

NC(=O)c1cccnc1 [Nicotinamide]
Growth Index Avg [1]: +++ | Growth Index Plate 1 [1]: +++ | Growth Index Plate 2 [1]: +++ | Growth Index Plate 3 [1]: +++ | Growth Index Avg [2]: − | Growth Index Plate 1 [2]: − | Growth Index Plate 2 [2]: − | Growth Index Plate 3 [2]: − | Growth Index Avg [3]: +++ | Growth Index Plate 1 [3]: +++ | Growth Index Plate 2 [3]: +++ | Growth Index Plate 3 [3]: +++ | Growth Index Avg [4]: − | Growth Index Plate 1 [4]: − | Growth Index Plate 2 [4]: − | Growth Index Plate 3 [4]: − | Growth Index Avg [5]: +++ | Growth Index Plate 1 [5]: +++ | Growth Index Plate 2 [5]: +++ | Growth Index Plate 3 [5]: +++ | Growth Index Avg [6]: +++ | Growth Index Plate 1 [6]: +++ | Growth Index Plate 2 [6]: +++ | Growth Index Plate 3 [6]: +++ | Growth Index Avg [7]: +++ | Growth Index Plate 1 [7]: +++ | Growth Index Plate 2 [7]: +++ | Growth Index Plate 3 [7]: +++ | Growth Index Avg [8]: − | Growth Index Plate 1 [8]: − | Growth Index Plate 2 [8]: − | Growth Index Plate 3 [8]: − | Growth Index Avg [9]: +++ | Growth Index Plate 1 [9]: +++ | Growth Index Plate 2 [9]: +++ | Growth Index Plate 3 [9]: +++ | Growth Index Avg [10]: − | Growth Index Plate 1 [10]: − | Growth Index Plate 2 [10]: − | Growth Index Plate 3 [10]: − | Growth Index Avg [11]: +++ | Growth Index Plate 1 [11]: +++ | Growth Index Plate 2 [11]: +++ | Growth Index Plate 3 [11]: +++ | Growth Index Avg [12]: +++ | Growth Index Plate 1 [12]: +++ | Growth Index Plate 2 [12]: +++ | Growth Index Plate 3 [12]: +++ | Growth Index Avg [13]: ++ | Growth Index Plate 1 [13]: ++ | Growth Index Plate 2 [13]: ++ | Growth Index Plate 3 [13]: ++ | Growth Index Avg [14]: − | Growth Index Plate 1 [14]: − | Growth Index Plate 2 [14]: − | Growth Index Plate 3 [14]: − | Growth Index Avg [15]: +++ | Growth Index Plate 1 [15]: +++ | Growth Index Plate 2 [15]: +++ | Growth Index Plate 3 [15]: +++ | Growth Index Avg [16]: − | Growth Index Plate 1 [16]: − | Growth Index Plate 2 [16]: − | Growth Index Plate 3 [16]: − | Growth Index Avg [17]: +++ | Growth Index Plate 1 [17]: +++ | Growth Index Plate 2 [17]: +++ | Growth Index Plate 3 [17]: +++ | Growth Index Avg [18]: ++ | Growth Index Plate 1 [18]: + | Growth Index Plate 2 [18]: ++ | Growth Index Plate 3 [18]: ++ | Growth Index Avg [19]: − | Growth Index Plate 1 [19]: − | Growth Index Plate 2 [19]: − | Growth Index Plate 3 [19]: − | Growth Index Avg [20]: − | Growth Index Plate 1 [20]: − | Growth Index Plate 2 [20]: − | Growth Index Plate 3 [20]: − | Growth Index Avg [21]: − | Growth Index Plate 1 [21]: − | Growth Index Plate 2 [21]: − | Growth Index Plate 3 [21]: − | Growth Index Avg [22]: − | Growth Index Plate 1 [22]: − | Growth Index Plate 2 [22]: − | Growth Index Plate 3 [22]: − | Growth Index Avg [23]: + | Growth Index Plate 1 [23]: + | Growth Index Plate 2 [23]: + | Growth Index Plate 3 [23]: + | Growth Index Avg [24]: − | Growth Index Plate 1 [24]: − | Growth Index Plate 2 [24]: − | Growth Index Plate 3 [24]: − | Growth Index Avg [25]: − | Growth Index Plate 1 [25]: − | Growth Index Plate 2 [25]: − | Growth Index Plate 3 [25]: − | Growth Index Avg [26]: − | Growth Index Plate 1 [26]: − | Growth Index Plate 2 [26]: − | Growth Index Plate 3 [26]: − | Growth Index Avg [27]: − | Growth Index Plate 1 [27]: − | Growth Index Plate 2 [27]: − | Growth Index Plate 3 [27]: − | Growth Index Avg [28]: − | Growth Index Plate 1 [28]: − | Growth Index Plate 2 [28]: − | Growth Index Plate 3 [28]: − | Growth Index Avg [29]: − | Growth Index Plate 1 [29]: − | Growth Index Plate 2 [29]: − | Growth Index Plate 3 [29]: − | Growth Index Avg [30]: − | Growth Index Plate 1 [30]: − | Growth Index Plate 2 [30]: − | Growth Index Plate 3 [30]: − | growth of P. Acnes in combination with 15-HETrE, compared with 15-HETrE used alone (in combination with 15-HETrE): did not reduce the growth | growth of P. Acnes in combination with 15-OHEPA, compared with 15 OHEPA used alone (in combination with 15-OHEPA): did not reduce the growth | growth of P. Acnes in combination with DGLA, compared with DGLA used alone (in combination with DGLA): did not reduce the growth
